Measurements as given in paper PMC4556614 (PLoS ONE, 2015).

How the values were obtained:
OCT2 [1] = molecular target: T1, OCT2 (Homo sapiens, UniProt O15244); test: Inhibition of OCT2-mediated [3H]MPP+ uptake in HEK-OCT2 cells; conditions: for inhibition at 3 min, 20 µM / inhibition at 3 min, 200 µM: pH 7.3, probe [3H]MPP+, 50 µM
OCT2 [2] = molecular target: T1, OCT2; test: in vitro; conditions: for % Inhibition of OCT2-dependent MF uptake at 20 µM (mean ± SEM) / % Inhibition of OCT2-dependent MF uptake at 200 µM (mean ± SEM) / inhibition at 3 min, 20 µM / inhibition at 3 min, 200 µM: human; for % Inhibition of OCT2-dependent MF uptake at 20 µM (mean ± SEM) / % Inhibition of OCT2-dependent MF uptake at 200 µM (mean ± SEM): pH 7.3; for inhibition at 3 min, 20 µM / inhibition at 3 min, 200 µM: pH 7.3, probe [14C]metformin, 1000 µM, metformin 1000 μM, net uptake HEK-OCT2 minus HEK-VC; for inhibition at 3 min, 20 µM: % Inhibition of OCT2-dependent MF uptake at 20 µM (mean ± SEM), test drug 20 µM; for inhibition at 3 min, 200 µM: % Inhibition of OCT2-dependent MF uptake at 200 µM (mean ± SEM), test drug 200 µM
[3] = test drug 20 µM, MPP+ 50 μM, 3 min, net uptake HEK-OCT2 minus HEK-VC
[4] = test drug 200 µM, MPP+ 50 μM, 3 min, net uptake HEK-OCT2 minus HEK-VC

T1 sequence (O15244 whole entry): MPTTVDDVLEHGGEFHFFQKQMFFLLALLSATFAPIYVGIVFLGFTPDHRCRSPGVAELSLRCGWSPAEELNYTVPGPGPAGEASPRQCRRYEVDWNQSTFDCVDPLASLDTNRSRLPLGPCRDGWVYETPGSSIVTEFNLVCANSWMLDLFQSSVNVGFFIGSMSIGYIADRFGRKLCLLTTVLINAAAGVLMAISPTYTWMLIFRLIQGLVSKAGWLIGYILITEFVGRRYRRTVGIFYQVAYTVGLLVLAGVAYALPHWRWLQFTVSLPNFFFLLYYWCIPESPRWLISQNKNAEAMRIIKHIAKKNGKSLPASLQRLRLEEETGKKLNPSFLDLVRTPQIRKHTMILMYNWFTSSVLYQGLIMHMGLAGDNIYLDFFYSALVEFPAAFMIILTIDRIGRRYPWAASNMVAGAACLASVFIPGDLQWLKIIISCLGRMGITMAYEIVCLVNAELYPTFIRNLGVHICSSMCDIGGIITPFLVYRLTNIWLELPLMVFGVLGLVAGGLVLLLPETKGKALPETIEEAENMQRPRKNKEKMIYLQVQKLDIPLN

| Structure (SMILES) | % Inhibition of OCT2-dependent MPP+ uptake at 20 µM (mean ± SEM) (OCT2 [1]; [3]) [%] | % Inhibition of OCT2-dependent MPP+ uptake at 200 µM (mean ± SEM) (OCT2 [1]; [4]) [%] | % Inhibition of OCT2-dependent MF uptake at 20 µM (mean ± SEM) (OCT2 [2]) | % Inhibition of OCT2-dependent MF uptake at 200 µM (mean ± SEM) (OCT2 [2]) | other results |
| --- | --- | --- | --- | --- | --- |
| CN1CCN2c3ncccc3Cc3ccccc3C2C1 (stereo not shown) [Mirtazapine] | -4.8 ± 4.0 | 57.6 ± 6.1 | 73.3 ± 3.0 | 90.7 ± 3.9 | – |
| O=C(NCCN1CCOCC1)c1ccc(Cl)cc1 [Moclobemide] | -38.7 ± 8.5 | -16.1 ± 17.7 | 4.3 ± 2.8 | 48.9 ± 2.1 | – |
| CCOC(=O)[N-]c1cn(N2CCOCC2)n[o+]1 [Molsidomine] | -1.7 ± 8.3 | 3.8 ± 4.9 | 41.4 ± 3.6 | 69.5 ± 1.7 | – |
| COc1nc(C)nc(Cl)c1N=C1NCCN1 [Moxonidine] | – | – | – | – | inhibition at 3 min, 20 µM (OCT2 [1]; human): 16.3 ± 6.5%; inhibition at 3 min, 200 µM (OCT2 [1]; human): 23.1 ± 7.1%; inhibition at 3 min, 20 µM (OCT2 [2]): 58.1 ± 14.5%; inhibition at 3 min, 200 µM (OCT2 [2]): 86.1 ± 2.9% |
| OC(CNCC(O)C1CCc2cc(F)ccc2O1)C1CCc2cc(F)ccc2O1 (stereo not shown) [Nebivolol] | -13.7 ± 13.3 | 43.2 ± 3.3 | 61.4 ± 10.4 | 75.2 ± 10.8 | – |
| CCOC(=O)C1=C(C)NC(C)=C(C(=O)OC)C1c1cccc([N+](=O)[O-])c1 (stereo not shown) [Nitrendipine] | 4.0 ± 6.3 | -2.4 ± 5.0 | 0.4 ± 9.8 | 53.2 ± 3.7 | – |
| C#C[C@]1(O)CC[C@H]2[C@@H]3CCC4=CC(=O)CC[C@@H]4[C@H]3CC[C@@]21C [Norethindrone] | -29.4 ± 6.4 | 3.0 ± 3.3 | 41.0 ± 11.0 | 87.7 ± 6.1 | – |
| Cc1cc2c(s1)Nc1ccccc1N=C2N1CCN(C)CC1 [Olanzapine] | 83.5 ± 9.4 | 109.7 ± 2.8 | -7.5 ± 5.7 | 74.9 ± 1.8 | % Inhibition of OCT2-dependent MPP+ uptake at 20 µM (mean ± SEM) (OCT2 [1]; test drug 20 µM, MPP+ 50 μM, 3 min, net uptake HEK-OCT2 minus HEK-VC, listed as olanzapine): most potent inhibitors |
| CCCc1nc(C(C)(C)O)c(C(=O)O)n1Cc1ccc(-c2ccccc2-c2nnn[nH]2)cc1 [Olmesartan] | – | – | – | – | inhibition at 3 min, 20 µM (OCT2 [1]; human): -23.8 ± 7.1%; inhibition at 3 min, 200 µM (OCT2 [1]; human): -21.9 ± 13.3%; inhibition at 3 min, 20 µM (OCT2 [2]): -0.1 ± 10.9%; inhibition at 3 min, 200 µM (OCT2 [2]): 21.1 ± 7.3% |
| OCCN1CCN(CCCN2c3ccccc3C=Cc3ccccc32)CC1 [Opipramol] | 14.0 ± 7.6 | 81.6 ± 3.9 | – | 99.5 ± 0.7 | – |
| O=C1Nc2ccc(Cl)cc2C(c2ccccc2)=NC1O (stereo not shown) [Oxazepam] | – | – | – | 97.5 ± 0.5 | % Inhibition of OCT2-dependent MPP+ uptake at 20 µM (mean ± SEM) (OCT2 [1]; human, pH 7.3): 37.6 ± 4.7; % Inhibition of OCT2-dependent MPP+ uptake at 200 µM (mean ± SEM) (OCT2 [1]; human, pH 7.3): 44.6 ± 6.5 |
| Fc1ccc([C@@H]2CCNC[C@H]2COc2ccc3c(c2)OCO3)cc1 [Paroxetine] | 15.5 ± 3.8 | 87.2 ± 3.6 | 80.6 ± 3.1 | 99.6 ± 1.9 | – |
| CN1CCN(CCCN2c3ccccc3Sc3ccccc32)CC1 [Perazine] | 58.5 ± 2.8 | 65.9 ± 2.0 | 53.6 ± 3.6 | 92.0 ± 1.8 | – |
| NC(=O)C1(N2CCCCC2)CCN(CCCC(=O)c2ccc(F)cc2)CC1 [Pipamperone] | 12.0 ± 4.5 | 33.1 ± 3.4 | 33.9 ± 6.0 | 78.1 ± 2.2 | – |
| NC(=O)CN1CCCC1=O [Piracetam] | -9.5 ± 12.1 | -0.5 ± 10.0 | 3.4 ± 3.4 | 2.5 ± 1.7 | – |
| CC[C@H](C)C(=O)O[C@H]1C[C@H](O)C=C2C=C[C@H](C)[C@H](CC[C@@H](O)C[C@@H](O)CC(=O)O)[C@H]21 [Pravastatin] | -30.2 ± 5.5 | -15.0 ± 5.2 | -26.3 ± 11.1 | -11.1 ± 11.1 | – |
| C[C@]12C=CC(=O)C=C1CC[C@@H]1[C@@H]2[C@@H](O)C[C@@]2(C)[C@H]1CC[C@]2(O)C(=O)CO [Prednisolone] | 42.1 ± 4.4 | 68.6 ± 2.8 | 66.0 ± 2.5 | 91.5 ± 0.5 | – |
| CC(C)C[C@H](CN)CC(=O)O [Pregabalin] | – | – | -1.3 ± 9.0 | 27.2 ± 5.9 | % Inhibition of OCT2-dependent MPP+ uptake at 20 µM (mean ± SEM) (OCT2 [1]; human, pH 7.3): -29.6 ± 7.5; % Inhibition of OCT2-dependent MPP+ uptake at 200 µM (mean ± SEM) (OCT2 [1]; human, pH 7.3): -15.8 ± 5.2 |
| CC(CN1c2ccccc2Sc2ccccc21)N(C)C (stereo not shown) [Promethazine] | 5.7 ± 3.8 | 76.0 ± 3.0 | 83.7 ± 3.3 | 100.7 ± 1.3 | – |
| CCOC(=O)[C@H](CCc1ccccc1)N[C@@H](C)C(=O)N1[C@H](C(=O)O)C[C@@H]2CCC[C@@H]21 [Ramipril] | 72.5 ± 7.4 | 83.6 ± 6.2 | 12.9 ± 4.1 | 35.4 ± 2.9 | – |
| CNC(=C[N+](=O)[O-])NCCSCc1ccc(CN(C)C)o1 [Ranitidine] | -7.9 ± 12.9 | 11.6 ± 3.4 | 65.2 ± 7.7 | 91.5 ± 3.8 | – |
| Cc1nc2n(c(=O)c1CCN1CCC(c3noc4cc(F)ccc34)CC1)CCCC2 [Risperidone] | 57.8 ± 5.2 | 78.4 ± 1.5 | 81.0 ± 4.4 | 98.3 ± 3.1 | – |
| CCN(C)C(=O)Oc1cccc([C@H](C)N(C)C)c1 [Rivastigmine] | 25.1 ± 9.1 | 59.4 ± 4.6 | 51.8 ± 4.0 | 91.4 ± 1.5 | – |
| CN[C@H]1CC[C@@H](c2ccc(Cl)c(Cl)c2)c2ccccc21 [Sertraline] | 43.6 ± 2.9 | 96.1 ± 1.7 | 88.4 ± 2.1 | 100.5 ± 0.7 | IC50 values, OCT2-mediated metformin transport (in words) (OCT2 [2]; potent inhibitors, confirmed previous findings [19]-[21]): low micromolar range |
| CCC(C)(C)C(=O)O[C@H]1C[C@@H](C)C=C2C=C[C@H](C)[C@H](CC[C@@H]3C[C@@H](O)CC(=O)O3)[C@H]21 [Simvastatin lactone] | 48.5 ± 9.0 | 53.8 ± 13.1 | -15.4 ± 5.5 | 57.6 ± 10.0 | – |
| CCOc1ccccc1OCCN[C@H](C)Cc1ccc(OC)c(S(N)(=O)=O)c1 [Tamsulosin] | 14.9 ± 4.8 | 65.7 ± 2.9 | – | 107.0 ± 3.1 | – |
